Reference: the supplement of paper PMC6315032

Key:
Test in all cases: apparent dissociation constant (pKDapp, Kinobeads competition, Cheng-Prusoff corrected) (-log10 M); higher = tighter binding
STK38 = STK38 (UniProt Q15208); settings: affinity matrix / lysate: Kinobeads, mixed HEK293/K-562/placenta lysate
ABL1 = ABL1 (UniProt P00519); settings: affinity matrix / lysate: Kinobeads, mixed HEK293/K-562/placenta lysate
CAMK2D = CAMK2D (UniProt Q13557); settings: affinity matrix / lysate: Kinobeads, mixed HEK293/K-562/placenta lysate
NEK9 = NEK9 (UniProt Q8TD19); settings: affinity matrix / lysate: Kinobeads, mixed HEK293/K-562/placenta lysate
CDC7 = CDC7 (UniProt O00311); settings: affinity matrix / lysate: Kinobeads, mixed HEK293/K-562/placenta lysate
RPS6KA5 = RPS6KA5 (UniProt O75582); settings: affinity matrix / lysate: Kinobeads, mixed HEK293/K-562/placenta lysate
PIK3C2B = PIK3C2B (UniProt O00750)
BMPR2 = BMPR2 (UniProt Q13873); settings: affinity matrix / lysate: Kinobeads, mixed HEK293/K-562/placenta lysate
MAPK3 = MAPK3 (UniProt P27361); settings: affinity matrix / lysate: Kinobeads, mixed HEK293/K-562/placenta lysate
CDKL5 = CDKL5 (UniProt O76039); settings: affinity matrix / lysate: Kinobeads, mixed HEK293/K-562/placenta lysate
RIOK2 = RIOK2 (UniProt Q9BVS4)
ACVR2A = ACVR2A (UniProt P27037); settings: affinity matrix / lysate: Kinobeads, mixed HEK293/K-562/placenta lysate
MAPKAPK5 = MAPKAPK5 (UniProt Q8IW41); settings: affinity matrix / lysate: Kinobeads, mixed HEK293/K-562/placenta lysate
TEC = TEC (UniProt P42680); settings: affinity matrix / lysate: Kinobeads, mixed HEK293/K-562/placenta lysate
TESK1 = TESK1 (UniProt Q15569); settings: affinity matrix / lysate: Kinobeads, mixed HEK293/K-562/placenta lysate
SYK = SYK (UniProt P43405); settings: affinity matrix / lysate: Kinobeads, mixed HEK293/K-562/placenta lysate
ITK = ITK (UniProt Q08881); settings: affinity matrix / lysate: Kinobeads, mixed HEK293/K-562/placenta lysate
HIPK1 = HIPK1 (UniProt Q86Z02); settings: affinity matrix / lysate: Kinobeads, mixed HEK293/K-562/placenta lysate
LATS2 = LATS2 (UniProt Q9NRM7); settings: affinity matrix / lysate: Kinobeads, mixed HEK293/K-562/placenta lysate
EPHA6 = EPHA6 (UniProt Q9UF33); settings: affinity matrix / lysate: Kinobeads, mixed HEK293/K-562/placenta lysate
OXSR1 = OXSR1 (UniProt O95747); settings: affinity matrix / lysate: Kinobeads, mixed HEK293/K-562/placenta lysate
CAMK2G = CAMK2G (UniProt Q13555); settings: affinity matrix / lysate: Kinobeads, mixed HEK293/K-562/placenta lysate
NLK = NLK (UniProt Q9UBE8); settings: affinity matrix / lysate: Kinobeads, mixed HEK293/K-562/placenta lysate
MAPK14 = MAPK14 (UniProt Q16539); settings: affinity matrix / lysate: Kinobeads, mixed HEK293/K-562/placenta lysate
PFTK1 = PFTK1 (UniProt O94921); settings: affinity matrix / lysate: Kinobeads, mixed HEK293/K-562/placenta lysate
FGFR3 = FGFR3 (UniProt P22607); settings: affinity matrix / lysate: Kinobeads, mixed HEK293/K-562/placenta lysate
PIM3 = PIM3 (UniProt Q86V86); settings: affinity matrix / lysate: Kinobeads, mixed HEK293/K-562/placenta lysate
ICK = ICK (UniProt Q9UPZ9); settings: affinity matrix / lysate: Kinobeads, mixed HEK293/K-562/placenta lysate
KIT = KIT (UniProt P10721); settings: affinity matrix / lysate: Kinobeads, mixed HEK293/K-562/placenta lysate
MAP2K1 = MAP2K1 (UniProt Q02750); settings: affinity matrix / lysate: Kinobeads, mixed HEK293/K-562/placenta lysate
YES1 = YES1 (UniProt P07947); settings: affinity matrix / lysate: Kinobeads, mixed HEK293/K-562/placenta lysate
PTK2 = PTK2 (UniProt Q05397); settings: affinity matrix / lysate: Kinobeads, mixed HEK293/K-562/placenta lysate
HIPK3 = HIPK3 (UniProt Q9H422); settings: affinity matrix / lysate: Kinobeads, mixed HEK293/K-562/placenta lysate
[1] = affinity matrix / lysate: Lipid Kinobeads, mixed HeLa/Jurkat/K-562 lysate
[2] = affinity matrix / lysate: Kinobeads, mixed HEK293/K-562/placenta lysate

Measured: apparent dissociation constant (-log10 M)

Chain of RIOK2 (Q9BVS4 whole entry, looked up): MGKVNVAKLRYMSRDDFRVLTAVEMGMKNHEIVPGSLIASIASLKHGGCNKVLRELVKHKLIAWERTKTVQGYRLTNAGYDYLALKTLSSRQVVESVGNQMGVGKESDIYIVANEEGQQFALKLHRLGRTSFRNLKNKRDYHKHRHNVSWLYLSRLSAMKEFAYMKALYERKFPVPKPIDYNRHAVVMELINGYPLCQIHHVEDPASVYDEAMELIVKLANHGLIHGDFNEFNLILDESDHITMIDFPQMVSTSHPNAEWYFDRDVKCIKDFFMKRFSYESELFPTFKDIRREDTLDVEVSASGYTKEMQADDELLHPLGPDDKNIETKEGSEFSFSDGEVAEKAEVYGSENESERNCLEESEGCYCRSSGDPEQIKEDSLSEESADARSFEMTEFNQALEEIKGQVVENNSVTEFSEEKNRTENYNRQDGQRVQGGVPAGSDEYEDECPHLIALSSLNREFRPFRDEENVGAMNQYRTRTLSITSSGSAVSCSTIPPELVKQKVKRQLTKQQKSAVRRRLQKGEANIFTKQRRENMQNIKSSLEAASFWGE
Chain of PIK3C2B (O00750 whole entry): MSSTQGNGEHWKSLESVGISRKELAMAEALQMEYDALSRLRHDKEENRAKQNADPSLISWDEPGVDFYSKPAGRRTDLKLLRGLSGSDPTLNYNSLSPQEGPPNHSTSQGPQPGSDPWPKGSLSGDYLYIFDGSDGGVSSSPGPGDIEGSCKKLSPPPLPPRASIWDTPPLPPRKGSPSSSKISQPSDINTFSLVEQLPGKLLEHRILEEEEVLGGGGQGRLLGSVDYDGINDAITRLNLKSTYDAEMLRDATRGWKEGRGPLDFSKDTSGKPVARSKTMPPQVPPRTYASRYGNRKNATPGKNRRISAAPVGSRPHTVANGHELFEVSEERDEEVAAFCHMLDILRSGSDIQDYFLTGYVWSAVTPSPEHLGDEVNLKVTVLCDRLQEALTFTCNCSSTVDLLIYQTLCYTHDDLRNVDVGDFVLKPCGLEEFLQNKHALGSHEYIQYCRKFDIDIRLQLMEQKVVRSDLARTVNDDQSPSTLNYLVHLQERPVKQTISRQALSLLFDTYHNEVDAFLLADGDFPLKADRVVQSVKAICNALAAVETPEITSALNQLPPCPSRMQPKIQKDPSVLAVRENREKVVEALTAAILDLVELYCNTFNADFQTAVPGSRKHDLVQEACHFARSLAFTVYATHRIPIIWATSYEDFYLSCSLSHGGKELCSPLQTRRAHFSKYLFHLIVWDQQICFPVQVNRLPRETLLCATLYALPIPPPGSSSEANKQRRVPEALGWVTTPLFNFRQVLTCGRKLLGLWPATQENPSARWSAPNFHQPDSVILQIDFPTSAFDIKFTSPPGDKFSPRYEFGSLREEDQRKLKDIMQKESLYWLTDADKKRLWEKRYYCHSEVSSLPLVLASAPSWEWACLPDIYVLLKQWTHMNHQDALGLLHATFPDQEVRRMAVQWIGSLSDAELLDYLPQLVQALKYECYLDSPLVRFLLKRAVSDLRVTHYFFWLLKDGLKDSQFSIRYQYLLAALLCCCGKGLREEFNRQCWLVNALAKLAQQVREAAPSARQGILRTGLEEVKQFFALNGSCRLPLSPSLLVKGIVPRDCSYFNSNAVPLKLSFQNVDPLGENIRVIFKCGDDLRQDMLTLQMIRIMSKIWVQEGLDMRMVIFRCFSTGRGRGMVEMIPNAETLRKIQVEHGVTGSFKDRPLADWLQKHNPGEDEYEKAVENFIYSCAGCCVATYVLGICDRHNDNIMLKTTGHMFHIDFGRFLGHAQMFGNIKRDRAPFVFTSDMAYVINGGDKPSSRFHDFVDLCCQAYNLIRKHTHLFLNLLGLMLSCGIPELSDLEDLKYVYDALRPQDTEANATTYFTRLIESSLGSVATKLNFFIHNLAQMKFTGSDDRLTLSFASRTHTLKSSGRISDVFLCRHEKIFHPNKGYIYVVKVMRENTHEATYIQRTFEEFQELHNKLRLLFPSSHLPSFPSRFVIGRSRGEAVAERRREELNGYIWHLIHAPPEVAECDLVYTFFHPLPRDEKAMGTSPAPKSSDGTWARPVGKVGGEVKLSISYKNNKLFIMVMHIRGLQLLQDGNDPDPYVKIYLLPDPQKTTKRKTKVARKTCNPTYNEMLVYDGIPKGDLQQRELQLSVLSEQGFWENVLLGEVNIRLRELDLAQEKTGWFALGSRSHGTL
Chain of ITK (Q08881 whole entry): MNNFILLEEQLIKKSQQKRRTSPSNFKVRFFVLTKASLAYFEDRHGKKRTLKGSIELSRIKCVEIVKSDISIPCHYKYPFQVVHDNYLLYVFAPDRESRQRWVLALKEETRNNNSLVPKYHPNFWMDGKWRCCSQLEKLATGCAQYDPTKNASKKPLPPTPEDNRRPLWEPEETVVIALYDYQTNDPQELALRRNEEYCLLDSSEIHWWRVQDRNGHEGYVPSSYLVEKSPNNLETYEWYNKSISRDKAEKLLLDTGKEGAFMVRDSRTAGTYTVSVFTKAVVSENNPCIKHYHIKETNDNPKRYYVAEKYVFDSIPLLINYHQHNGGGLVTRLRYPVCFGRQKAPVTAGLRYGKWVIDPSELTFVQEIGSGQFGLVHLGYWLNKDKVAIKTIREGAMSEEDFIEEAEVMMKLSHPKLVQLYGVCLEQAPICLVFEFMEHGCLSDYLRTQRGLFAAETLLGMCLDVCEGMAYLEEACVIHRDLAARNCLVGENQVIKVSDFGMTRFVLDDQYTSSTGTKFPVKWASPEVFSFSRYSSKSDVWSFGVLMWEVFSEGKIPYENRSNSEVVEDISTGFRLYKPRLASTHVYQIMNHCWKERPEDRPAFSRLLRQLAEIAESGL
Chain of CAMK2D (Q13557 whole entry): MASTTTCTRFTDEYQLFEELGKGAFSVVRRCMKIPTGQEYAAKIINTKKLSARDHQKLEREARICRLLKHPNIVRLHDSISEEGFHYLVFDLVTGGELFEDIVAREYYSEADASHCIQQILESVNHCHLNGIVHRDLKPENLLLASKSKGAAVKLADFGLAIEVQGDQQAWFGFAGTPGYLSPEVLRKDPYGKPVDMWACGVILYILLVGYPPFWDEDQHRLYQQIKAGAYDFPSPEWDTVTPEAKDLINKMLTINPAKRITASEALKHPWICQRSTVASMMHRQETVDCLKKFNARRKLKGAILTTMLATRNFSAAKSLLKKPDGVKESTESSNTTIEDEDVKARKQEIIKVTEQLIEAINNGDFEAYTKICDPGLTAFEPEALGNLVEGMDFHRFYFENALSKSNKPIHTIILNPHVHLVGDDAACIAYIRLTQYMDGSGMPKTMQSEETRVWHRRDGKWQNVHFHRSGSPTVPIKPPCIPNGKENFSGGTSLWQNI
Chain of CDC7 (O00311 whole entry, looked up): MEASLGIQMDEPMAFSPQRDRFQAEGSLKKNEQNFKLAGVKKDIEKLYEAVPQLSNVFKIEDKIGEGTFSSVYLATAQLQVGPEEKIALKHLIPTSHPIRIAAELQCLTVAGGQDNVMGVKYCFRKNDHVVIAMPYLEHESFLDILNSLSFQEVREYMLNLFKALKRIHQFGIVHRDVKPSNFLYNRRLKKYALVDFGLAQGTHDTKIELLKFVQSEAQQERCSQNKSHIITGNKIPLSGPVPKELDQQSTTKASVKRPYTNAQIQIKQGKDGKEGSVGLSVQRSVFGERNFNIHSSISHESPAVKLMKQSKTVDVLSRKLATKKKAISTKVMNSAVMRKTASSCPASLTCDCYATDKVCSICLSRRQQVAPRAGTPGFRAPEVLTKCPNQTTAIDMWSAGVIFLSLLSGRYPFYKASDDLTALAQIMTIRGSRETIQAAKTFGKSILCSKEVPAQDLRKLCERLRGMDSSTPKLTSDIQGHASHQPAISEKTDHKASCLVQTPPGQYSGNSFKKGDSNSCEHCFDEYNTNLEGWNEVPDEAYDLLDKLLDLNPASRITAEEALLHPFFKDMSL
Chain of HIPK1 (Q86Z02 whole entry, looked up): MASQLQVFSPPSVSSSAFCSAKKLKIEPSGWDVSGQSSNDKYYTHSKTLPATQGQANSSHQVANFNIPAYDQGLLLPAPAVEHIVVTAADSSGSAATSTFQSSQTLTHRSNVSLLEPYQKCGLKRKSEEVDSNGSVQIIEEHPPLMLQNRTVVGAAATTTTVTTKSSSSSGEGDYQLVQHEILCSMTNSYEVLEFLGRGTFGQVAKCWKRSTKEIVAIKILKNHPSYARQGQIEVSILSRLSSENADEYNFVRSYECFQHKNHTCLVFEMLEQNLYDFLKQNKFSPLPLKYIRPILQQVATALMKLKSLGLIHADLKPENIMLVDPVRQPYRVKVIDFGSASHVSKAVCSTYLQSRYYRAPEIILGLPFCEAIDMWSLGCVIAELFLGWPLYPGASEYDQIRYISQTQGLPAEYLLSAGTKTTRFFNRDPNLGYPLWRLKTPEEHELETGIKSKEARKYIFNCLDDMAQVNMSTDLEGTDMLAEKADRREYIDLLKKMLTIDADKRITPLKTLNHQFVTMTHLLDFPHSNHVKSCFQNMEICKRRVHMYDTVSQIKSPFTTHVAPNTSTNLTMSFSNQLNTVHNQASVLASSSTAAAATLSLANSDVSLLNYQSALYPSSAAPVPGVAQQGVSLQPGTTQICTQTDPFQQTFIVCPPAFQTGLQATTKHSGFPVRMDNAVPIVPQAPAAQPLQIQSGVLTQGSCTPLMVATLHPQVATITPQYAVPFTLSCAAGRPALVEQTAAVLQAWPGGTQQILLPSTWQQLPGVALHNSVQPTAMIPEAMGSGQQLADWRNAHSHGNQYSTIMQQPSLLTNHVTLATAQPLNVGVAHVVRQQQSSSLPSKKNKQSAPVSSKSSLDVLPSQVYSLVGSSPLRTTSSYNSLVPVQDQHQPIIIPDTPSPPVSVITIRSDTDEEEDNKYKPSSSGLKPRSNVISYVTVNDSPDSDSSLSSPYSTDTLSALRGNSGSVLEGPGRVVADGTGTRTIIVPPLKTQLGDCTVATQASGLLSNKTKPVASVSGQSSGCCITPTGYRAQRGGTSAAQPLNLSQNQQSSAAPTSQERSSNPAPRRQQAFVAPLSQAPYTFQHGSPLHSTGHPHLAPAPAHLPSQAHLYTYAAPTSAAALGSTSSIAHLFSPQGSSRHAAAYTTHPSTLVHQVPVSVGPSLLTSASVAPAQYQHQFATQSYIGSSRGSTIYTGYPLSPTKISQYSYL

COc1ccc(-c2ccc3c(N4CCOC[C@@H]4C)nc(N4CCOC[C@@H]4C)nc3n2)cc1CO [AZD8055]
< 6: STK38 | ABL1 | CAMK2D | NEK9 | CDC7 | RPS6KA5 | PIK3C2B; [1] | BMPR2 | MAPK3 | CDKL5 | RIOK2; [2] | RIOK2; [1] | ACVR2A | MAPKAPK5 | TEC | TESK1 | SYK | ITK | HIPK1 | LATS2 | EPHA6 | OXSR1 | CAMK2G | NLK | MAPK14 | PFTK1 | FGFR3 | PIM3 | ICK | KIT | MAP2K1 | YES1 | PTK2 | HIPK3

CCNC(=O)Nc1ccc(-c2nc(N3CCOC[C@@H]3C)c3c(n2)C(C)(C)S(=O)(=O)C3)cc1 [CZ415]
< 6: STK38 | ABL1 | CAMK2D | NEK9 | CDC7 | RPS6KA5 | PIK3C2B; [2] | PIK3C2B; [1] | BMPR2 | MAPK3 | CDKL5 | RIOK2; [2] | RIOK2; [1] | ACVR2A | MAPKAPK5 | TEC | TESK1 | SYK | ITK | HIPK1 | LATS2 | EPHA6 | OXSR1 | CAMK2G | NLK | MAPK14 | PFTK1 | FGFR3 | PIM3 | ICK | KIT | MAP2K1 | YES1 | PTK2 | HIPK3
